Source: ChEMBL document CHEMBL4806959, “Antagonistic peptides for frizzled-1 and frizzled-2” (2015)
Calls of active or inactive are those of the source. Residues, ends and D or L forms follow the SMILES beside them.

Key:
[1] = target: Frizzled-2 (Rattus norvegicus) (UniProt Q08464); test: Antagonist activity at Wnt3a-stimulated rat frizzled-2 expressed in CHO cells up to 10 uM incubated for 24 hrs by luciferase reporter gene assay; format: cell-based; conditions: dose microM <=10, time 24.0 hrs
Chain of Frizzled-2 (Rattus norvegicus) (Q08464 29-570 limits assumed): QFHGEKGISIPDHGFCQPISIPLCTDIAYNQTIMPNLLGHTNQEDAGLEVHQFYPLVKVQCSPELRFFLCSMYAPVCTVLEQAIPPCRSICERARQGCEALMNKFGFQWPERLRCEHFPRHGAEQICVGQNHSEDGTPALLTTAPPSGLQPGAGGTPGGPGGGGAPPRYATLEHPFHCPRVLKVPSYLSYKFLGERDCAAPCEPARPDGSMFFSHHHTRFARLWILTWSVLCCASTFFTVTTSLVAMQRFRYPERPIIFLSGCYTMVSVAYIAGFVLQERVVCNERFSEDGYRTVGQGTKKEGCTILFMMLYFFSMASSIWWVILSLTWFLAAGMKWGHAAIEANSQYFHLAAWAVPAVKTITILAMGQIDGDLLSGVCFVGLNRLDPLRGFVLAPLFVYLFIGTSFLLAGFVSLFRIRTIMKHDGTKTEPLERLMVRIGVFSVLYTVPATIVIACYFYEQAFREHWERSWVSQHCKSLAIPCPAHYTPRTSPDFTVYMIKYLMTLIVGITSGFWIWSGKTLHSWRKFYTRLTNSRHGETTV

[2] = target: Frizzled-1 (Rattus norvegicus) (UniProt Q08463); test: Antagonist activity at Wnt3a-stimulated rat frizzled-1 expressed in CHO cells up to 10 uM incubated for 24 hrs by luciferase reporter gene assay; format: cell-based; conditions: dose microM <=10, time 24.0 hrs
Chain of Frizzled-1 (Rattus norvegicus) (Q08463 whole entry): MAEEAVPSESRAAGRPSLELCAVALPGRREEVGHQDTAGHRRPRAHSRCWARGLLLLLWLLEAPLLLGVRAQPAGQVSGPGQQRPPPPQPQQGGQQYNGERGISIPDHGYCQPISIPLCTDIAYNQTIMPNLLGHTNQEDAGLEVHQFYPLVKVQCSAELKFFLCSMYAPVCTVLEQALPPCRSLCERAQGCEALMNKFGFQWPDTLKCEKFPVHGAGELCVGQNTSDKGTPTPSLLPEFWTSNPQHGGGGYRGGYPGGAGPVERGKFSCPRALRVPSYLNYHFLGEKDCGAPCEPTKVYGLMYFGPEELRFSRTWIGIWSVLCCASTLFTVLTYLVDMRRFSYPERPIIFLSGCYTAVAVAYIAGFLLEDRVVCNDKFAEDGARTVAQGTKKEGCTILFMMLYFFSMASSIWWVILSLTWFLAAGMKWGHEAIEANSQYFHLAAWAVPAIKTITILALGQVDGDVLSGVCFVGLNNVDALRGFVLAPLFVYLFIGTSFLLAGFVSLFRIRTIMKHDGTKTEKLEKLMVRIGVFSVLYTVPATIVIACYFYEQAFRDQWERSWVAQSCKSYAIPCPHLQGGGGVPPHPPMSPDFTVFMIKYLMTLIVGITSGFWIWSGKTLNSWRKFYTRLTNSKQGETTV

[3] = target: Frizzled-2 (Rattus norvegicus) (UniProt Q08464); test: Antagonist activity at Wnt3a-stimulated rat frizzled-2 expressed in African green monkey COS7 cells up to 10 uM incubated for 24 hrs by luciferase reporter gene assay; format: cell-based; conditions: dose microM <=10, time 24.0 hrs
[4] = target: Frizzled-1 (Rattus norvegicus) (UniProt Q08463); test: Antagonist activity at Wnt3a-stimulated rat frizzled-1 expressed in African green monkey COS7 cells up to 10 uM incubated for 24 hrs by luciferase reporter gene assay; format: cell-based; conditions: dose microM <=10, time 24.0 hrs
[5] = target: Frizzled-1 (Homo sapiens) (UniProt Q9UP38); test: Antagonist activity at Wnt3a-stimulated frizzled-1 (unknown origin) expressed in human HEK293superTOP flash cells at 10 nM incubated for 24 hrs by luciferase reporter gene assay; format: functional, cell-based; conditions: HEK293
Chain of Frizzled-1 (Homo sapiens) (Q9UP38 70-647 limits assumed): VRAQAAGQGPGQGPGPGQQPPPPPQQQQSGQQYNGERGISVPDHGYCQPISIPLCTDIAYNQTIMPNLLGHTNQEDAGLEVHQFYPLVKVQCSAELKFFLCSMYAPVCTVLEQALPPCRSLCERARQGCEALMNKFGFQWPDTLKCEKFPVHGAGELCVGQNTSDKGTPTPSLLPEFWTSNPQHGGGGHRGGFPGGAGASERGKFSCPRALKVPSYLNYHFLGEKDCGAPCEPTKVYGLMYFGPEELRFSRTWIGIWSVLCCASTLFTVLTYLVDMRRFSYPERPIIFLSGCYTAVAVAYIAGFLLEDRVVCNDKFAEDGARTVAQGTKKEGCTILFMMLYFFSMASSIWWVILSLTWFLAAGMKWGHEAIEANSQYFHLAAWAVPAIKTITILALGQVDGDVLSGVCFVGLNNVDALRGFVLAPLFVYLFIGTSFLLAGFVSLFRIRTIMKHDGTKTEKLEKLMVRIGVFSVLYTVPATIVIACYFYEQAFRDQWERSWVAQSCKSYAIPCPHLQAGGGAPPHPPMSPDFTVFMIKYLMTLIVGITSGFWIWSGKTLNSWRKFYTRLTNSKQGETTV

Frizzled-2 = Frizzled-2 (Homo sapiens, UniProt Q14332); test: Antagonist activity at Wnt3a-stimulated frizzled-2 (unknown origin) expressed in human HEK293superTOP flash cells at 10 nM incubated for 24 hrs by luciferase reporter gene assay; format: functional, cell-based; conditions: HEK293
Chain of Frizzled-2 (Q14332 24-565 limits assumed): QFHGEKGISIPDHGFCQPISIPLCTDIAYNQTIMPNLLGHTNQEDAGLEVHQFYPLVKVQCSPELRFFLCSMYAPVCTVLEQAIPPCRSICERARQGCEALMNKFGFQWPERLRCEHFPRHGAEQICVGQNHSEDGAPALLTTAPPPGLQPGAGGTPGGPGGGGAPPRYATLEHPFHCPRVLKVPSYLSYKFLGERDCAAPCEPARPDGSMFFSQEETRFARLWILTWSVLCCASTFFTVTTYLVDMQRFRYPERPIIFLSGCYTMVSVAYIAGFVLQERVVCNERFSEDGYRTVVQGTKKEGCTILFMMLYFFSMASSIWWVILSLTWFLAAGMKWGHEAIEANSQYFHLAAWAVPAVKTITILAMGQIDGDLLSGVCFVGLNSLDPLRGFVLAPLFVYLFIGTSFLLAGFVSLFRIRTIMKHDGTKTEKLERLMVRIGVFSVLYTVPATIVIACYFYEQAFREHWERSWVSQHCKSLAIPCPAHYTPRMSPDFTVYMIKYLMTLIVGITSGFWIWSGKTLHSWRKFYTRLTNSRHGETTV

Measured: inhibition

CSCC[C@H](NC(=O)CNC(=O)[C@H](CCC(=O)O)NC(=O)[C@H](CO)NC(=O)[C@@H](NC(=O)[C@H](CCCCN)NC(=O)[C@H](CC(N)=O)NC(=O)[C@H](C)NC(C)=O)[C@@H](C)O)C(=O)N[C@@H](CC(=O)O)C(=O)NCC(=O)N[C@@H](CS)C(=O)N[C@@H](CCC(=O)O)C(=O)N[C@@H](CC(C)C)C(N)=O (Ac-ANKTSEGMDGCEL-NH2)
inactive: all assays above

CSCC[C@H](NC(=O)CNC(=O)[C@H](CCC(=O)O)NC(=O)[C@H](CO)NC(=O)[C@@H](NC(=O)[C@H](CCCCN)NC(=O)[C@H](C)NC(=O)[C@H](CS)NC(C)=O)[C@@H](C)O)C(=O)N[C@@H](CC(=O)O)C(=O)NCC(=O)N[C@@H](CS)C(=O)N[C@@H](CCC(=O)O)C(=O)N[C@@H](CC(C)C)C(N)=O (Ac-CAKTSEGMDGCEL-NH2)
inactive: all assays above

CSCC[C@H](NC(=O)CNC(=O)[C@H](CCC(=O)O)NC(=O)[C@H](CO)NC(=O)[C@@H](NC(=O)[C@H](C)NC(=O)[C@H](CC(N)=O)NC(=O)[C@H](CS)NC(C)=O)[C@@H](C)O)C(=O)N[C@@H](CC(=O)O)C(=O)NCC(=O)N[C@@H](CS)C(=O)N[C@@H](CCC(=O)O)C(=O)N[C@@H](CC(C)C)C(N)=O (Ac-CNATSEGMDGCEL-NH2)
inactive: all assays above

CSCC[C@H](NC(=O)[C@H](C)NC(=O)[C@H](CCC(=O)O)NC(=O)[C@H](CO)NC(=O)[C@H](C)NC(=O)[C@H](CCCCN)NC(=O)[C@H](CC(N)=O)NC(=O)[C@H](CS)NC(C)=O)C(=O)N[C@@H](C)C(=O)NCC(=O)N[C@@H](CS)C(=O)N[C@@H](CCC(=O)O)C(=O)N[C@@H](CC(C)C)C(N)=O (Ac-CNKASEAMAGCEL-NH2)
inactive: all assays above

CSCC[C@H](NC(=O)CNC(=O)[C@H](CCC(=O)O)NC(=O)[C@H](CO)NC(=O)[C@H](C)NC(=O)[C@H](CCCCN)NC(=O)[C@H](CC(N)=O)NC(=O)[C@H](CS)NC(C)=O)C(=O)N[C@@H](CC(=O)O)C(=O)NCC(=O)N[C@@H](CS)C(=O)N[C@@H](CCC(=O)O)C(=O)N[C@@H](CC(C)C)C(N)=O (Ac-CNKASEGMDGCEL-NH2)
inactive: all assays above

CSCC[C@H](NC(=O)CNC(=O)[C@H](CCC(=O)O)NC(=O)[C@H](C)NC(=O)[C@@H](NC(=O)[C@H](CCCCN)NC(=O)[C@H](CC(N)=O)NC(=O)[C@H](CS)NC(C)=O)[C@@H](C)O)C(=O)N[C@@H](CC(=O)O)C(=O)NCC(=O)N[C@@H](CS)C(=O)N[C@@H](CCC(=O)O)C(=O)N[C@@H](CC(C)C)C(N)=O (Ac-CNKTAEGMDGCEL-NH2)
inactive: all assays above

CSCC[C@H](NC(=O)CNC(=O)[C@H](C)NC(=O)[C@H](CO)NC(=O)[C@@H](NC(=O)[C@H](CCCCN)NC(=O)[C@H](CC(N)=O)NC(=O)[C@H](CS)NC(C)=O)[C@@H](C)O)C(=O)N[C@@H](CC(=O)O)C(=O)NCC(=O)N[C@@H](CS)C(=O)N[C@@H](CCC(=O)O)C(=O)N[C@@H](CC(C)C)C(N)=O (Ac-CNKTSAGMDGCEL-NH2)
inactive: all assays above

CSCC[C@H](NC(=O)[C@H](C)NC(=O)[C@H](CCC(=O)O)NC(=O)[C@H](CO)NC(=O)[C@@H](NC(=O)[C@H](CCCCN)NC(=O)[C@H](CC(N)=O)NC(=O)[C@H](CS)NC(C)=O)[C@@H](C)O)C(=O)N[C@@H](CC(=O)O)C(=O)NCC(=O)N[C@@H](CS)C(=O)N[C@@H](CCC(=O)O)C(=O)N[C@@H](CC(C)C)C(N)=O (Ac-CNKTSEAMDGCEL-NH2)
inactive: all assays above

CC(=O)N[C@@H](CS)C(=O)N[C@@H](CC(N)=O)C(=O)N[C@@H](CCCCN)C(=O)N[C@H](C(=O)N[C@@H](CO)C(=O)N[C@@H](CCC(=O)O)C(=O)NCC(=O)N[C@@H](C)C(=O)N[C@@H](CC(=O)O)C(=O)NCC(=O)N[C@@H](CS)C(=O)N[C@@H](CCC(=O)O)C(=O)N[C@@H](CC(C)C)C(N)=O)[C@@H](C)O (Ac-CNKTSEGADGCEL-NH2)
inactive: all assays above

CSCC[C@H](NC(=O)CNC(=O)[C@H](CCC(=O)O)NC(=O)[C@H](CO)NC(=O)[C@@H](NC(=O)[C@H](CCCCN)NC(=O)[C@H](CC(N)=O)NC(=O)[C@H](CS)NC(C)=O)[C@@H](C)O)C(=O)N[C@@H](C)C(=O)NCC(=O)N[C@@H](CS)C(=O)N[C@@H](CCC(=O)O)C(=O)N[C@@H](CC(C)C)C(N)=O (Ac-CNKTSEGMAGCEL-NH2)
inactive: all assays above

CSCC[C@H](NC(=O)CNC(=O)[C@H](CCC(=O)O)NC(=O)[C@H](CO)NC(=O)[C@@H](NC(=O)[C@H](CCCCN)NC(=O)[C@H](CC(N)=O)NC(=O)[C@H](CS)NC(C)=O)[C@@H](C)O)C(=O)N[C@@H](CC(=O)O)C(=O)N[C@@H](C)C(=O)N[C@@H](CS)C(=O)N[C@@H](CCC(=O)O)C(=O)N[C@@H](CC(C)C)C(N)=O (Ac-CNKTSEGMDACEL-NH2)
inactive: all assays above

CSCC[C@H](NC(=O)CNC(=O)[C@H](CCC(=O)O)NC(=O)[C@H](CO)NC(=O)[C@@H](NC(=O)[C@H](CCCCN)NC(=O)[C@H](CC(N)=O)NC(=O)[C@H](CS)NC(C)=O)[C@@H](C)O)C(=O)N[C@@H](CC(=O)O)C(=O)NCC(=O)N[C@@H](C)C(=O)N[C@@H](CCC(=O)O)C(=O)N[C@@H](CC(C)C)C(N)=O (Ac-CNKTSEGMDGAEL-NH2)
inactive: all assays above

CSCC[C@H](NC(=O)CNC(=O)[C@H](CCC(=O)O)NC(=O)[C@H](CO)NC(=O)[C@@H](NC(=O)[C@H](CCCCN)NC(=O)[C@H](CC(N)=O)NC(=O)[C@H](CS)NC(C)=O)[C@@H](C)O)C(=O)N[C@@H](CC(=O)O)C(=O)NCC(=O)N[C@@H](CS)C(=O)N[C@@H](C)C(=O)N[C@@H](C)C(N)=O (Ac-CNKTSEGMDGCAA-NH2)
inactive: all assays above

CSCC[C@H](NC(=O)CNC(=O)[C@H](CCC(=O)O)NC(=O)[C@H](CO)NC(=O)[C@@H](NC(=O)[C@H](CCCCN)NC(=O)[C@H](CC(N)=O)NC(=O)[C@H](CS)NC(C)=O)[C@@H](C)O)C(=O)N[C@@H](CC(=O)O)C(=O)NCC(=O)N[C@@H](CS)C(=O)N[C@@H](C)C(=O)N[C@@H](CC(C)C)C(N)=O (Ac-CNKTSEGMDGCAL-NH2)
inactive: all assays above
